# What was measured:
# Cytochrome P450 1A2 = molecular target: T1, Cytochrome P450 1A2 (Homo sapiens, UniProt P05177); assay: Inhibition of recombinant CYP1A2 (unknown origin) using 7-ethoxyresorufin as substrate preincubated for 5 mins followed by NADPH addition incubated for 50 mins by EROD assay; assay type: ADME
# T1 sequence (P05177 whole entry): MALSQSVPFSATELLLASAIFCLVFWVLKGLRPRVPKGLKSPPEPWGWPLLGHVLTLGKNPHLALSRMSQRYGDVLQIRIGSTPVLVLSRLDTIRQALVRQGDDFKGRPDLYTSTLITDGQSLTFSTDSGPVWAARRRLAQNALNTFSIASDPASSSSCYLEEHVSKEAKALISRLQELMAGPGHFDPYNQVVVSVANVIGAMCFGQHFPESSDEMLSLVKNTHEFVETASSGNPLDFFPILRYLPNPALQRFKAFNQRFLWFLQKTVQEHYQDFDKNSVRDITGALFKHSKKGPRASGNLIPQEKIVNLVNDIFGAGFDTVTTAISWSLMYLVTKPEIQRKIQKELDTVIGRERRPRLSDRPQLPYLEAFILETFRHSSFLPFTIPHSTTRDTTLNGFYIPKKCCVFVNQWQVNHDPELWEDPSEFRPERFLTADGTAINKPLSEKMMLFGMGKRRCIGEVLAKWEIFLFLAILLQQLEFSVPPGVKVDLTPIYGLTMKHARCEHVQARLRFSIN
# Cytochrome P450 1B1 [1] = molecular target: T2, Cytochrome P450 1B1 (Homo sapiens, UniProt Q16678); assay: Inhibition of recombinant CYP1B1 (unknown origin) using 7-ethoxyresorufin as substrate preincubated for 5 mins followed by NADPH addition incubated for 35 mins by EROD assay; assay type: ADME
# T2 sequence (Q16678 whole entry): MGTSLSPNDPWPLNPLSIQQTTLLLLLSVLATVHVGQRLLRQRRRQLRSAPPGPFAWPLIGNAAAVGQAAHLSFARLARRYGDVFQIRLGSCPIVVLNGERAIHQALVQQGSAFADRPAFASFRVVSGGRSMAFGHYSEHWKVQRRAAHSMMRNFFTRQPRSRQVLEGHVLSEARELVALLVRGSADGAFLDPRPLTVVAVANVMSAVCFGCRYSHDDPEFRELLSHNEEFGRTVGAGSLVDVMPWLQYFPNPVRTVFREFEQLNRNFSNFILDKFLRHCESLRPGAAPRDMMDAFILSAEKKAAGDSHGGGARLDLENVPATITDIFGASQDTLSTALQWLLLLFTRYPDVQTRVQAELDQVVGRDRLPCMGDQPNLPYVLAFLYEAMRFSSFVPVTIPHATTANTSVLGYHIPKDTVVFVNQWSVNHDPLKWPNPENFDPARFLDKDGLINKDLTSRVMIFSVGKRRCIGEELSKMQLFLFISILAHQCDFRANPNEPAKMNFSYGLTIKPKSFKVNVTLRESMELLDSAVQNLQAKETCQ
# Cytochrome P450 1B1 [2] = molecular target: T2, Cytochrome P450 1B1; assay: Binding affinity to CYP1B1 in human HCT-15 cells assessed as apparent dissociation constant incubated for 1 hr by flow cytometry analysis; assay type: ADME, cell-based; details: read-out: Kd(app)
# HFF-1 = assay: Cytotoxicity against human HFF-1 cells at 1 to 10 uM incubated for 24 hrs by MTT assay; assay type: toxicity, cell-based; details: hff-1, 24 h, dose 1-10 µM
# [3] = Stability of the compound assessed as drug degradation observed after 24 hrs by HPLC analysis; assay type: physicochemical
# HCT-15 = assay: Cytotoxicity against human HCT-15 cells assessed as cell viability at 10 uM incubated for 24 hrs by MTT assay; assay type: functional; details: read-out: Activity
# Cytochrome P450 1A1 = molecular target: T3, Cytochrome P450 1A1 (Homo sapiens, UniProt P04798); assay: Inhibition of recombinant CYP1A1 (unknown origin) using 7-ethoxyresorufin as substrate preincubated for 5 mins followed by NADPH addition incubated for 15 mins by EROD assay; assay type: ADME
# T3 sequence (P04798 whole entry): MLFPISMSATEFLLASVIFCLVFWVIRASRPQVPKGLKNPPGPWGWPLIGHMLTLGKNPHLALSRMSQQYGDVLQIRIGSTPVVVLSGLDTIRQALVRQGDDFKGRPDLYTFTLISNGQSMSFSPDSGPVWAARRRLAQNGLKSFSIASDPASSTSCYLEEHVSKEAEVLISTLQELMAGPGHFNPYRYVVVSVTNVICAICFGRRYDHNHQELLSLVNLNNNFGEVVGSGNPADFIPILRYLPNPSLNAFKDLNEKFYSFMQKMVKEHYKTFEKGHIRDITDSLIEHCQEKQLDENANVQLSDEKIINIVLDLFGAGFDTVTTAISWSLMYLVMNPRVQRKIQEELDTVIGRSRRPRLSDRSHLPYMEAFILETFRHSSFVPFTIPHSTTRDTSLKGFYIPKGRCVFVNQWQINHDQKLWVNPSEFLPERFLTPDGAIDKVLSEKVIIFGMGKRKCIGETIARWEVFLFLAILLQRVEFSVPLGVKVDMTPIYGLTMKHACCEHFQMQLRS
SMILES,IC50 (Cytochrome P450 1A2),other results
COc1ccc(OC)c2c1c(OC)cc1c(=O)cc(-c3cc(F)cc(OCCOCCN)c3)oc12,525 nM,
COc1ccc(OC)c2c1c(OC)cc1c(=O)cc(-c3cc(N)cc(F)c3)oc12,,IC50 (Cytochrome P450 1B1 [1]): 2.03 nM
COc1ccc(OC)c2c1c(OC)cc1c(=O)cc(-c3cc(F)cc(OCCOCCOCCN)c3)oc12,1840 nM,
CCN1/C(=C/C=C/C=C/C2=[N+](CCCCCC(=O)NCCCCCCCCC(=O)Nc3cc(F)cc(-c4cc(=O)c5cc(OC)c6c(OC)ccc(OC)c6c5o4)c3)c3ccc4c(S(=O)(=O)[O-])cc(S(=O)(=O)O)cc4c3C2(C)C)C(C)(C)c2c1ccc1c(S(=O)(=O)O)cc(S(=O)(=O)O)cc21,,Kd (Cytochrome P450 1B1 [2]): 213 nM; Activity (HFF-1): Non-Toxic; Stability [3]: Stable; viability at 10 µM (HCT-15): > 80%
O=c1cc(-c2ccccc2)oc2c1ccc1ccccc12 [ALPHA-NAPHTHOFLAVONE],,IC50 (Cytochrome P450 1A1): 37.8 nM
COc1ccc(OC)c2c1c(OC)cc1c(=O)cc(-c3cc(F)cc(OCCOCCOCCOCCN)c3)oc12,> 2000 nM,

# More lines, main results first:
IC50 (Cytochrome P450 1A2),SMILES,other results
> 2000 nM,COc1ccc(OC)c2c1c(OC)cc1c(=O)cc(-c3cc(F)cc(NC(=O)COCCOCCN)c3)oc12,
> 2000 nM,COc1ccc(OC)c2c1c(OC)cc1c(=O)cc(-c3cc(F)cc(NC(=O)COCCOCCOCCN)c3)oc12,
514 nM,COc1ccc(OC)c2c1c(OC)cc1c(=O)cc(-c3cc(F)cc(NC(=O)CCCCN)c3)oc12,
